Experimental data reported in ChEMBL document CHEMBL3272199, “Beta-lactam antibiotics with N-oxide side chains. 1. Quinoxaline N-oxides” (1976).
Values after ≈ are worked out from the molar mass of the structure shown. Active and inactive are the calls of the source. The calls are words filed in the database; no cut-off is given here.

Legend:
Staphylococcus aureus [1] = test: Antibacterial activity against Staphylococcus aureus assessed as growth inhibition incubated for 24 hrs using mixed anhydride; format: functional
Salmonella [2] = test: Antibacterial activity against Salmonella schottmuelleri assessed as growth inhibition incubated for 24 hrs using mixed anhydride; format: functional
Pseudomonas aeruginosa = test: Antimicrobial activity against Pseudomonas aeruginosa infected in mouse assessed as growth inhibition at 250 mg/kg; format: functional, organism-based; parameters: dose 250 mg/kg
Proteus mirabilis = test: Antimicrobial activity against Proteus mirabilis infected in mouse assessed as growth inhibition at 250 mg/kg; format: functional, organism-based; parameters: dose 250 mg/kg
Staphylococcus aureus [3] = test: Antibacterial activity against Staphylococcus aureus assessed as growth inhibition incubated for 24 hrs using acid chloride; format: functional
Salmonella [4] = test: Antibacterial activity against Salmonella schottmuelleri assessed as growth inhibition incubated for 24 hrs using acid chloride; format: functional
Staphylococcus aureus [5] = test: Antibacterial activity against Staphylococcus aureus assessed as zone of inhibition at 100 ug/ml incubated for 24 hrs; format: functional, organism-based

Compound | MIC (Staphylococcus aureus [1]) [mg/L] | MIC (Salmonella [2]) [mg/L] | Activity (Pseudomonas aeruginosa) | Activity (Proteus mirabilis) | MIC (Staphylococcus aureus [3]) [mg/L] | MIC (Salmonella [4]) [mg/L] | inhibition zone (IZ) (Staphylococcus aureus [5])
CC1(C)S[C@@H]2[C@H](NC(=O)CCCc3c(-c4ccccc4)[n+]([O-])c4ccccc4[n+]3[O-])C(=O)N2[C@H]1C(=O)[O-].[Na+] | 10 | > 1000 | inactive | inactive |  |  | 
CC1(C)S[C@@H]2[C@H](NC(=O)c3c(-c4ccccc4)[n+]([O-])c4ccccc4[n+]3[O-])C(=O)N2[C@H]1C(=O)[O-].[Na+] |  |  | inactive | inactive | 100 | 1000 | Active
CC1(C)S[C@@H]2[C@H](NC(=O)Cc3ccccc3)C(=O)N2[C@H]1C(=O)O [PENICILLIN G] | 10 (≈ 29.9 µM) | 10 (≈ 29.9 µM) |  |  | 10 (≈ 29.9 µM) | 10 (≈ 29.9 µM) | 
CCOC(=O)c1c(C(=O)N[C@@H]2C(=O)N3[C@@H]2SC(C)(C)[C@@H]3C(=O)[O-])nc2ccccc2[n+]1[O-].[Na+] |  |  | inactive | inactive | 100 | 1000 | Active
Cc1c(CC(=O)N[C@@H]2C(=O)N3C(C(=O)O)=C(C[O-])CS[C@H]23)[n+]([O-])c2ccccc2[n+]1[O-].[Na+] | 1000 | > 1000 | inactive | inactive |  |  | Active
Cc1c(C(=O)N[C@@H]2C(=O)N3[C@@H]2SC(C)(C)[C@@H]3C(=O)[O-])[n+]([O-])c2ccccc2[n+]1[O-].[Na+] |  |  | inactive | inactive | 100 | 1000 | 
Cc1c(C)[n+]([O-])c2cc(C(=O)N[C@@H]3C(=O)N4[C@@H]3SC(C)(C)[C@@H]4C(=O)[O-])ccc2[n+]1[O-].[Na+] | 100 | > 1000 | inactive | inactive |  |  | 
Cc1c(CC(=O)N[C@@H]2C(=O)N3[C@@H]2SC(C)(C)[C@@H]3C(=O)[O-])[n+]([O-])c2ccccc2[n+]1[O-].[Na+] | 100 | 1000 | inactive | inactive |  |  | 
CCOC(=O)c1c(CCC(=O)N[C@@H]2C(=O)N3[C@@H]2SC(C)(C)[C@@H]3C(=O)[O-])[n+]([O-])c2ccccc2[n+]1[O-].[Na+] | 10 | 1000 | inactive | inactive |  |  | 
